The target in this experiment is T1, Recombinant human Met (c-Met) (Homo sapiens, UniProt P08581).
T1 construct: purchased Invitrogen PV3143
Kind of experiment: Inhibition of c-Met kinase activity using Transcreener FP assay. Particulars: Poly E4Y substrate, 28° C. 45 min. It is filed as biochemical. As to the method: Compound dilution: dilute test articles to 5 folds of the testing concentration using 20% DMSO.
The mixture is kept on ice until use;
Prepare ATP standard curve stock as following:
3. Enzymatic reaction: in 96-well reaction plate
Add 5 μL of test article or 5 μL of 20% DMSO or 5 μL of 500 mM EDTA;
Add 10 μL of Enzyme/Substrate stock;
Add 10 μL of ATP Diluent to begin the enzyme reaction and mix on plate shaker;
Add 5 μL of 20% DMSO, 10 μL of assay buffer and 10 μL of ATP standard curve stock into standard curve wells;
Gently shake at 28° C. for 45 min.
4. Stop reaction and detect ADP
Prepare Detection Mix: According to the procedures described in the Assay kit, Alexa633 tracer, ADP antibody and stop & detect buffer were added into H2O and mixed thoroughly. Prepare Tracer Only control: According to the procedures described in the Assay kit, ADP Alexa633 tracer and stop & detect buffer were added to H2O and mixed throughly.
Prepare No Tracer control: According to the procedures described in the Assay kit, the stop & detect buffer was diluted with H2O;
Add 25 μL of detection mix, Tracer Only control and No Tracer control into corresponding wells, respectively;
The reaction plate was gently shaken at 28° C. for 1 h;
Florescence polarization (FP) was measured on TECAN F500. Excitation wavelength: 610 nm, Emission wavelength: 670 nm.
Compound well [ADP] represents the ADP concentration of the compound well. Positive control well [ADP] represents the ADP concentration of the 20% DMSO well. Conversion of mP value to ADP concentration is based on the formula which is determined by standard curve.
IC50: calculated using XL-Fit 2.0 software.

Where [1] appears, read: read-out: IC50, inhibition of c-Met kinase activity.

Molecules are shown by their SMILES. Like-named read-outs stand apart in the source and are kept apart here.

T1 sequence (P08581 956-1390 limits assumed): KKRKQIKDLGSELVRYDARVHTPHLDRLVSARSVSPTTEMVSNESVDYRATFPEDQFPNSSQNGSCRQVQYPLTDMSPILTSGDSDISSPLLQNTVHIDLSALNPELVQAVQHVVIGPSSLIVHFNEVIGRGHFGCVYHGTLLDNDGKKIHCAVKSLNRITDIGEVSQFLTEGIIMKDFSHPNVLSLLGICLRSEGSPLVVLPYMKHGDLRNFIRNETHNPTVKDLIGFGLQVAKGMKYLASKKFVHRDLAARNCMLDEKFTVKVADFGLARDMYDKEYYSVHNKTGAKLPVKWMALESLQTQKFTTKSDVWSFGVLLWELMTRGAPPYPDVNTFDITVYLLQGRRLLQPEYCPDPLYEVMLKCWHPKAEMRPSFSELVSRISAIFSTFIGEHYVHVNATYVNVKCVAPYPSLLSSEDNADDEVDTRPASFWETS

For `COc1cc(Nc2cnc3nnn(Cc4ccc5ncccc5c4)c3n2)ccn1` [Compound 195], the half-maximal inhibitory concentration (IC50) under setting [1] was in the range of 1 to 100 nM.
For the molecule `c1cnc2ccc(Cn3nnc4ncc(Nc5ccsc5)nc43)cc2c1` [Compound 161], the IC50 under setting [1] was 1 to 100 nM.
In the case of `Brc1cnc2nnn(Cc3cc4[nH]ncc4s3)c2n1` [Compound 295], the IC50 under setting [1] was 1 to 100 nM.
The same measure, in the same setting: as for `CC(=O)OCCn1cc(-c2ccc3nnn(Cc4ccc5ncccc5c4)c3n2)cn1` [Compound 98], the figure is 100 to 1000 nM; as for `Cn1cc(-c2cnc3nnn(Cc4ccc5ncc(C=O)n5c4)c3n2)cn1` [Compound 307, 6-((6-(1-Methyl-1H-pyrazol-4-yl)-1H-[1,2,3]triazolo[4,5-b]pyrazin-1-yl)methyl)-imidazo[1,2-a]pyridine-3-carbaldehyde], 1 to 100 nM.
As for `CCCn1cc(-c2ccc3nnn(Cc4ccc5nccn5c4)c3n2)cn1` [Compound 140], the concentration for half-maximal inhibition (IC50) under setting [1] lay in the range of 1 to 100 nM.
On the same count and under the same terms, as for `CC(C)n1cc(-c2cnc3nnn(Cc4cc5[nH]ncc5s4)c3n2)cn1` [Compound 26], the figure is 1 to 100 nM; as for `Cc1cc(Nc2cnc3nnn(Cc4ccc5ncccc5c4)c3n2)n[nH]1` [Compound 191], 1 to 100 nM.
On to `CC(=O)Nc1cc(-c2cnn(C)c2)nc2c1nnn2Cc1ccc2ncccc2c1` [Compound 261, N-(5-(1-methyl-1H-pyrazol-4-yl)-3-(quinolin-6-ylmethyl)-3H-[1,2,3]triazolo[4,5-b]pyridin-7-yl)acetamide], for which the IC50 under setting [1] fell in the range of 100 to 1000 nM.
The same measure, in the same setting: as for `Cc1cc(Nc2cnc3nnn(Cc4ccc5ncccc5c4)c3n2)cc(C)n1` [Compound 224], the figure is 1 to 100 nM; as for `CC(C)OCc1cnc2ccc(Cn3nnc4ncc(-c5cnn(C)c5)nc43)cn12` [Compound 323], 1 to 100 nM.
With `COCCn1cc(-c2cnc3nnn(Cc4ccn5nccc5c4)c3n2)cn1` [Compound 268], the IC50 under setting [1] lay in the range of 1 to 100 nM.
For the molecule `CC(c1ccc2nccn2c1)n1nnc2ncc(-c3cnn(C)c3)nc21` (racemic) [Compound 331], the IC50 (IC50, inhibition of c-Met kinase activity) lay in the range of 1 to 100 nM.
Regarding `COc1cccc(-c2ccc3nnn(Cc4c[nH]c5ncccc45)c3n2)c1` [Compound 112], the IC50 under setting [1] lay in the range of 1 to 100 nM.
Same read-out and setting: as for `Cn1cc(-c2cnc3nnn(Cc4ccc5ncsc5c4)c3n2)cn1` [Compound 11], the figure is 1 to 100 nM.
`Cn1cc(Nc2cnc3nnn(Cc4ccc5ncccc5c4)c3n2)cn1` [Compound 173]: the IC50 under setting [1] lay within 1 to 100 nM.
Still for that read-out and setting: then `OCCn1cc(-c2cnc3nnn(Cc4cc5cccnc5s4)c3n2)cn1` [Compound 5], with 100 to 1000 nM; and `OCCn1cc(-c2ccc3nnn(Cc4cc5cccnc5cc4F)c3n2)cn1` [Compound 128], with 1 to 100 nM; and `Clc1ccc(Nc2cnc3nnn(Cc4ccc5ncccc5c4)c3n2)nc1` [Compound 164], with 1 to 100 nM.
The same measure, in the same setting: then `Cc1cnc(Nc2cnc3nnn(Cc4ccc5ncccc5c4)c3n2)s1` [Compound 176], with 1 to 100 nM; and `Clc1cncc(Oc2cnc3nnn(Cc4ccc5ncccc5c4)c3n2)c1` [Compound 254], with 1 to 100 nM; and `OCCn1cc(-c2ccc3nnn(C4(c5ccc6ncccc6c5)CC4)c3n2)cn1` [Compound 123], with 100 to 1000 nM.
`COc1ccc(-c2cnc3nnn(Cc4ccc5nccn5c4)c3n2)cn1` [Compound 276]: the IC50 under setting [1] lay within 1 to 100 nM.
On to `Cc1cc(Nc2cnc3nnn(Cc4ccc5ncccc5c4)c3n2)no1` [Compound 200], for which the IC50 under setting [1] was in the range of 1 to 100 nM.
On to `Cc1ccc(Nc2cnc3nnn(Cc4ccc5ncccc5c4)c3n2)cn1` [Compound 155], for which, under setting [1], the IC50 is 1 to 100 nM.
For the molecule `CC(c1ccc2nccn2c1)n1nnc2ncc(-c3cnn(CC(F)(F)F)c3)nc21` (stereo not shown) [Compound 277], under setting [1], the IC50 lay in the range of 1 to 100 nM.
Same read-out and setting: then `c1cc(Nc2cnc3nnn(Cc4ccc5ncccc5c4)c3n2)nc(N2CCOCC2)c1` [Compound 166], with 1 to 100 nM; and `O[C@@H]1CCC[C@H]1Nc1ccnc(Nc2ccc3nnn(Cc4ccc5ncccc5c4)c3n2)c1` [Compound 219], with 100 to 1000 nM.
Consider `CNC(=O)c1ccnc(Nc2cnc3nnn(Cc4ccc5ncccc5c4)c3n2)c1` [Compound 174], for which the IC50 under setting [1] was in the range of 100 to 1000 nM.
Same read-out and setting: as for `Cc1cccc(Oc2cnc3nnn(Cc4ccc5ncccc5c4)c3n2)n1` [Compound 255], the figure is 1 to 100 nM; as for `FC(F)(F)Cn1cc(-c2ccc3nnn(Cc4ccc5ncccc5n4)c3n2)cn1` [Compound 292], 100 to 1000 nM; as for `Cn1cc(-c2ccc3nnn(Cc4ccc5ncnn5c4)c3n2)cn1` [Compound 120], 100 to 1000 nM.
As for `CN1CCC(n2cc(-c3ccc4nnn(Cc5ccc6ncccc6c5)c4n3)cn2)CC1` [Compound 101], under setting [1], the half-maximal inhibitory concentration (IC50) was in the range of 100 to 1000 nM.
Still for that read-out and setting: then `Cc1cccc(Nc2ccc3nnn(Cc4ccc5ncccc5c4)c3n2)n1` [Compound 182], with 1 to 100 nM; and `COCCOc1cc(-c2ccc3nnn(Cc4ccc5ncccc5c4)c3n2)ccn1` [Compound 107], with 100 to 1000 nM; and `c1cn2cc(Cn3nnc4ncc(-c5cnn(C6CCNCC6)c5)nc43)ccc2n1` [Compound 46], with 1 to 100 nM.
Regarding `Clc1cccc(Nc2ccc3nnn(Cc4cc5cnccc5s4)c3n2)c1` [Compound 170], the IC50 under setting [1] is 100 to 1000 nM.
Still for that read-out and setting: as for `COc1ccc(-c2cnc3nnn(Cc4ccc5ncnn5c4)c3n2)cc1` [Compound 59], the figure is 1 to 100 nM.
Turning to `CNc1cc(Nc2cnc3nnn(Cc4ccc5ncccc5c4)c3n2)ccn1` [Compound 231], the concentration for half-maximal inhibition (IC50) under setting [1] lay in the range of 100 to 1000 nM.
Same read-out and setting: then `CC(C)n1cc(-c2ccc3nnn(Cc4ccc5nccn5c4)c3n2)cn1` [Compound 136], with 1 to 100 nM; and `OCc1ccc(-c2ccc3nnn(Cc4ccc5ncccc5c4)c3n2)s1` [Compound 104], with 1 to 100 nM; and `CC(c1ccc2ncsc2c1)n1nnc2ncc(-c3cnn(CCO)c3)nc21` (stereo not shown) [Compound 20], with 1 to 100 nM.
As to `COCCNc1cc(-c2ccc3nnn(Cc4ccc5ncccc5c4)c3n2)ccn1` [Compound 110], the IC50 under setting [1] fell in the range of 100 to 1000 nM.
The same measure, in the same setting: then `COc1cccc(-c2ccc3nnn(Cc4ccc5ncccc5c4)c3n2)c1` [Compound 88], with 1 to 100 nM.
As to `N#Cc1ccnc(Nc2cnc3nnn(Cc4ccc5ncccc5c4)c3n2)c1` [Compound 223], the half-inhibitory concentration (IC50) under setting [1] is 1 to 100 nM.
As for `Cc1cccc(N(C)c2cnc3nnn(Cc4ccc5ncccc5c4)c3n2)n1` [Compound 154], the IC50 under setting [1] is 100 to 1000 nM.
On the same count and under the same terms, as for `COc1cc(Nc2ccc3nnn(Cc4ccc5ncccc5c4)c3n2)ccn1` [Compound 179], the figure is 1 to 100 nM; as for `OCCn1cc(-c2cnc3nnn(Cc4ccc5nccn5n4)c3n2)cn1` [Compound 281], 1 to 100 nM; as for `CCn1cc(-c2cnc3nnn(Cc4cc5[nH]ncc5s4)c3n2)cn1` [Compound 25], 1 to 100 nM.
Still for that read-out and setting: as for `O[C@@H]1CCC[C@H]1Nc1ccnc(Nc2cnc3nnn(Cc4ccc5ncccc5c4)c3n2)c1` [Compound 206], the figure is 100 to 1000 nM; as for `Cc1cccc(Nc2ccc3nnn(Cc4ccc5ncccc5c4)c3n2)n1` [Compound 181], 100 to 1000 nM.
Consider `CS(=O)(=O)Nc1ccc(-c2ccc3nnn(Cc4ccc5ncccc5c4)c3n2)cn1` [Compound 90], for which the IC50 under setting [1] lay in the range of 1 to 100 nM.
On the same count and under the same terms, as for `c1cnc2ccc(Cn3nnc4ccc(-c5cnn(C6CCOCC6)c5)nc43)cc2c1` [Compound 118], the figure is 100 to 1000 nM; as for `Cc1ccnc(Nc2cnc3nnn(Cc4ccc5ncccc5c4)c3n2)c1` [Compound 196], 1 to 100 nM; as for `CCn1cc(-c2ccc3nnn(Cc4ccc5ncccc5c4)c3n2)cn1` [Compound 95], 1 to 100 nM.
As for `N#CCn1cc(-c2cnc3nnn(Cc4cc5[nH]ncc5s4)c3n2)cn1` [Compound 27], under setting [1], the IC50 was 1 to 100 nM.
On the same count and under the same terms, as for `Cn1cc(-c2cnc3nnn(Cc4ccc5ncc(Cl)n5c4)c3n2)cn1` [Compound 300], the figure is 1 to 100 nM; as for `Fc1ccc(-c2cnc3nnn(Cc4ccn5nccc5c4)c3n2)cc1` [Compound 303], 1 to 100 nM; as for `c1cn2cc(Cn3nnc4ncc(-c5cnn(C6CNC6)c5)nc43)ccc2n1` [Compound 290], 1 to 100 nM.
Still for that read-out and setting: then `N#CCn1cc(-c2ccc3nnn(Cc4ccc5ncccc5c4)c3n2)cn1` [Compound 117], with 1 to 100 nM; and `CC(=O)Nc1ccc(-c2ccc3nnn(Cc4c[nH]c5ncccc45)c3n2)cn1` [Compound 115], with 1 to 100 nM.
On the same count and under the same terms, then `c1cnc2ccc(Cn3nnc4ccc(-c5cc[nH]n5)nc43)cc2c1` [Compound 81], with 1 to 100 nM.
Regarding `CCCn1cc(-c2cnc3nnn(Cc4ccc5nccn5c4)c3n2)cn1` [Compound 47], the IC50 under setting [1] is 1 to 100 nM.
Still for that read-out and setting: as for `OCCn1cc(-c2ccc3nnn(Cc4ccc5nccn5c4)c3n2)cn1` [Compound 134], the figure is 1 to 100 nM.
Regarding `COCc1cnc2ccc([C@H](C)n3nnc4ncc(-c5cnn(C)c5)nc43)cn12` [Compound 324], the IC50 under setting [1] lay in the range of 1 to 100 nM.
Same read-out and setting: then `c1cnc2ccc(Cn3nnc4ncc(Nc5ccnc(NC6CCOC6)c5)nc43)cc2c1` (stereo not shown) [Compound 222], with 1 to 100 nM; and `OCCn1cc(-c2ccc3nnn(Cc4n[nH]c5ncccc45)c3n2)cn1` [Compound 138], with 100 to 1000 nM.

The IC50 is the concentration that inhibits the measured activity by half.

The record behind these values is US11896592B2, “Certain triazolopyridines and triazolopyrazines, compositions thereof and methods of use therefor” (Hutchison Medipharma Limited, priority 2009, dated 2024).
